Experimental data published in patent US20130143958A1, “DOSAGE UNIT COMPRISING A PROSTAGLANDIN ANALOG FOR TREATING CONSTIPATION” (priority 2001, published 2013).

Legend:
[1] = cited from earlier work; for effect on the intestine: administered in pharmacological doses
[2] = system: volunteers; assay: Phase Ia single rising dose study, safety, tolerance and bowel movement frequency; format: in vivo, human
Protocol: (§1) The safety and tolerance of oral Compound A (13,14-dihydro-15-keto-16,16-difluoro-PGE1) was evaluated in 16 volunteers in a single-dose Phase I study (Phase Ia) at rising per-person doses of 6 μg, 12 μg, 24 μg, 48 μg, 72 μg, and 96 μg compared and in 24 volunteers in a multiple-dose Phase I study (Phase Ib) at rising per-person doses of 24 μg, 30 μg, and 36 μg of Compound A administered three times a day (TID) (i.e., total daily per person doses of 72 μg, 90 μg and 108 μg) for 6 days.
96 μg was the maximum tolerated single oral Compound A dose. […] These occurred in 13 of the 17 volunteers and all resolved. Volunteers receiving placebo experienced five AEs. Most AEs could be categorized as either responses or events commonly reported in Phase I clinical trials (such as headache and lightheadedness) or expected pharmacodynamic responses of Compound A (such as loose bowel movements, diarrhea and abdominal cramping).
Bowel movement frequency was assessed during the 24 hour period after dosing for each dose-level group. Bowel movements were experienced in the placebo and in all active dose groups. […] Compared to only three of twelve subjects experiencing bowel movements in the placebo group, all six subjects in the 96 μg Compound A group experienced bowel movements. Furthermore, the average number of bowel movements per subject in this Compound A group (1.5) was three times greater than the average number of bowel movements per subject in the placebo group (0.5).

[3] = system: volunteers; assay: Phase Ib multiple rising dose study (TID for 6 days), safety, tolerance and bowel movement frequency; format: in vivo, human; conditions: for total bowel movements in group: placebo 31
Protocol: as §1
Compound A was determined to be optimal when administered at the 24 μg dose TID and determined to be safe and tolerable up to 36 μg when administered TID for at least 6 days.
Bowel movement frequency was assessed in this study as well. […] A total of 193 bowel movements were experienced in this study. Of these, 31 occurred in the placebo group, 70 in the 24 μg group, 51 in the 30 μg group and 41 in the 36 μg group.

[4] = system: patients; assay: Phase II dosage study in constipation, 21 days; format: in vivo, human; conditions: for daily average number of spontaneous bowel movements vs placebo: Week 1 and Week 2; for stool consistency: all post-baseline time points
Protocol: All randomized patients who took at least one dose of double-blind study medication constituted the safety evaluable (SE) population. These patients were included in the demographic data, baseline characteristic data and safety analysis. For efficacy, the same data set was used and is referred to as the intent-to-treat (ITT) population. […] Key efficacy analyses were also performed on the per-protocol (PP) population, which excluded all data for the affected weeks for protocol violators. Patients whose treatments were adjusted were analyzed in their original treatment group (i.e., as randomized).
Eligible patients were treated with either placebo or total daily doses of 24 μg, 48 μg or 72 μg of Compound A for 21 days. One placebo or Compound A capsule was taken 3 times each day (AM, Noon, and PM). Compound A was administered as 24 μg oral capsules. Patients assigned to receive the total daily 24 μg Compound A dose took one Compound A capsule in the AM and one matching placebo capsule both at Noon and in the PM; patients assigned to receive the total daily 48 μg Compound A dose took one Compound A capsule in both the AM and PM and one matching placebo capsule at Noon; patients assigned to receive the total daily 72 μg Compound A dose took one Compound A capsule in the AM, at Noon, and in the PM.

CCCCC(C)(O)C/C=C/[C@H]1[C@H](O)CC(=O)[C@@H]1CCCCCCC(=O)OC (mixture of isomers) [misoprostol]
most commonly reported side effect ([1]; in vivo): diarrhea

CCCCC(F)(F)C(=O)CCC1C(O)CC(=O)C1CCCCCCC(=O)O (centres unmarked) [Compound A, 13,14-dihydro-15-keto-16,16-difluoro-PGE1]
average number of bowel movements per subject relative to placebo group ([2]; 96 μg single dose, 24 hour period after dosing): three | average number of bowel movements per subject ([2]; 96 μg single dose, 24 hour period after dosing, placebo 0.5): 1.5 | subjects experiencing bowel movements ([2]; 96 μg single dose, 24 hour period after dosing, placebo three of twelve): all six | bowel movements compared to placebo ([2]; 24 hour period after dosing): trend for increased bowel movements | total number of AEs ([2]; in vivo): 49 | volunteers with AEs ([2]; in vivo): 13 of the 17 | dose-limiting toxicity ([2]; in vivo, po): nausea | maximum tolerated single per-person dose ([2]; single oral dose): 96 µg | total bowel movements in group ([3]; 24 μg group TID): 70 | total bowel movements in group ([3]; 30 μg group TID): 51 | maximum tolerated multiple dose as total daily dose ([3]; 36 μg TID): 108 µg | total bowel movements in group ([3]; 36 μg group TID): 41 | best tolerated effective dose ([3]; TID, healthy volunteers): 24 µg | optimal dose ([3]; administered TID): 24 µg | central nervous system or physical abnormalities ([3]; in vivo): no central nervous system or physical abnormalities observed | main dose limiting side effect ([3]; in vivo): nausea | safe and tolerable dose ([3]; in vivo): up to 36 μg | vital signs and ECG measurements ([3]; in vivo): normal | maximum tolerated multiple per-person dose ([3]; oral, taken TID, 6 days): 36 µg | proportion of patients who had a spontaneous bowel movement on Day 1 ([4]; 48 μg total daily dose): statistically significant increase | daily average number of spontaneous bowel movements vs placebo ([4]; 48 μg total daily dose): statistically significant increases | constipation severity ([4]; 48 μg total daily dose, Week 3): Statistically significant improvements | stool consistency ([4]; 48 μg total daily dose): Statistically significant improvements | proportion of patients who had a spontaneous bowel movement on Day 1 ([4]; 72 μg total daily dose): statistically significant increase | daily average number of spontaneous bowel movements vs placebo ([4]; 72 μg total daily dose): statistically significant increases | constipation severity ([4]; 72 μg total daily dose, Weeks 2 and 3): Statistically significant improvements | stool consistency ([4]; 72 μg total daily dose): Statistically significant improvements | minimum effective dose ([4]; based on statistical analyses): 48 μg per day | overall efficacy, relief of constipation ([4]; doses as low as 24 μg per day): tended to relieve constipation

CCCCC[C@H](O)/C=C/[C@H]1[C@H](O)CC(=O)[C@@H]1C/C=C\CCCC(=O)O [PGE2]
effect on the intestine [1]: stimulate intestinal transit and to cause diarrhea

CCCCC[C@H](O)/C=C/[C@@H]1[C@@H](C/C=C\CCCC(=O)O)[C@@H](O)C[C@H]1O [PGF2α]
effect on the intestine [1]: stimulate intestinal transit and to cause diarrhea
